IC50 data for 19 compounds are collected here from patent US20230192626A1 (Baylor College of Medicine, priority 2020, published 2023).

The target of this test is T1, Human sEH (hsEH) (Homo sapiens, UniProt P34913).
T1 construct: purchased Cayman Chemicals
T1 sequence (P34913 1-555): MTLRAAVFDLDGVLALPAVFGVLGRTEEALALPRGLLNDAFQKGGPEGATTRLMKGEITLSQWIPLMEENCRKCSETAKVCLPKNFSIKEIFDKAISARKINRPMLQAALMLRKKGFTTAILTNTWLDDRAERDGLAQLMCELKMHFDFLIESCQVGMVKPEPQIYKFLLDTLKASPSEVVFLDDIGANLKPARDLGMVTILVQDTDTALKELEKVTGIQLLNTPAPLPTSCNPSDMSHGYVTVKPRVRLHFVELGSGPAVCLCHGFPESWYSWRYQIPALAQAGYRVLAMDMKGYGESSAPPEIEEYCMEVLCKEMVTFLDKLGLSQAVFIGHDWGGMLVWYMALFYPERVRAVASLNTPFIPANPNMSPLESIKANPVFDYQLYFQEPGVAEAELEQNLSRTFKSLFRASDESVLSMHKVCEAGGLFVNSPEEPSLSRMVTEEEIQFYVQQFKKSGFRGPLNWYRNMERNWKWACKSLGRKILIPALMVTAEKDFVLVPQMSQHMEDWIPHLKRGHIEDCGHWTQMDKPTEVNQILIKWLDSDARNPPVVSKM
The test can be described thus: fluorescence-based sEH biochemical inhibition assay (PHOME substrate). The conditions noted are these: Table 1; hsEH 5 nM, PHOME 50 μM, 30° C. The procedure: The benzimidazole-based compounds synthesized according to Example 1 were measured for activity. Using a fluorescence-based sEH biochemical inhibition assay, the IC50 value was measured for each benzimidazole-based compound. Human sEH (hsEH) and its substrate PHOME were purchased from Cayman Chemicals. IC50 values of hsEH inhibitors were determined by fluorescence. IC50 is defined as the concentration of the inhibitor that blocks 50% of the enzymatic activity. To a 96-well plate containing 10 μL enzyme (5 nM in water), 60 μL of H2O and 10 μL BisTris-HCl buffer (25 mM, pH 7.0) were added inhibitors with different concentrations. The mixture was incubated for 5 min at 30° C. prior to addition of 10 μL of PHOME substrate (50 μM). Fluorescence were measured at 30° C. with an excitation wavelength of 330 nm and an emission wavelength of 465 nm using a BioTek H1 plate reader. The IC50 values were calculated by non-linear regression fitting. The curve was generated from at least three separate runs, each in duplicates. Results are given as means and standard deviations. In Table 1, an IC50 value less than or equal to 1 μM is indicated as an “A.” an IC50 value from greater than 1 μM to less than 10 μM is indicated as a “B′” and an IC50 value of greater than or equal to 10 μM is indicated as a “C.”
Additional benzimidazole-based compounds as described herein were measured for activity according to the procedure outlined in Example 2. Briefly, using a fluorescence-based sEH biochemical inhibition assay, the IC50 value was measured for each benzimidazole-based compound.
Usually IC50 stands for the concentration needed to halve the response being measured. Lower therefore signals greater potency in that assay. `Cc1ccc2[nH]c(-c3ccc(C(F)(F)F)cc3)nc2c1C` [Compound 41, 4,5-dimethyl-2-(4-(trifluoromethyl)phenyl)-1H-benzo[d]imidazole]: the IC50 was at most 1 µM.

In the case of `Cc1cc2nc(Oc3ccc(OC(F)(F)F)cc3)[nH]c2cc1C` [Compound 12, 5,6-dimethyl-2-(4-(trifluoromethoxy)phenoxy)-1H-benzo[d]imidazole], the 50% inhibitory concentration (IC50) is at least 10 µM.

Take `Fc1ccc(Oc2ccc(-c3nc4cc(F)c(F)cc4[nH]3)cc2)cc1` [Compound 52, 5,6-difluoro-2-(4-(4-fluorophenoxy)phenyl)-1H-benzo[d]imidazole]: the IC50 is at most 1 µM.

As for `Cc1cc2nc(Nc3ccc(C(C)(C)C)cc3)[nH]c2cc1C` [Compound 6, N-(4-(tert-butyl)phenyl)-5,6-dimethyl-1H-benzo[d]imidazol-2-amine], the half-maximal inhibitory concentration (IC50) was 1 to 10 µM.

As for `Cc1noc(-c2ccc(-c3nc4cc(F)c(F)cc4[nH]3)cc2)n1` [Compound 60, 5-(4-(5,6-difluoro-1H-benzo[d]imidazol-2-yl)phenyl)-3-methyl-1,2,4-oxadiazole], the IC50 is at least 10 µM.

`Fc1ccc2[nH]c(-c3ccc(C(F)(F)F)cc3)nc2c1F` [Compound 48, 4,5-difluoro-2-(4-(trifluoromethyl)phenyl)-1H-benzo[d]imidazole] had an IC50 of at most 1 µM.

`O=c1[nH]nc(-c2ccc(-c3nc4cc(F)c(F)cc4[nH]3)cc2)o1` [Compound 55, 5-(4-(5,6-difluoro-1H-benzo[d]imidazol-2-yl)phenyl)-1,3,4-oxadiazol-2(3H)-one] showed a half-maximal inhibitory concentration (IC50) of at most 1 µM.

As for `Fc1cc2nc(-c3ccc(-c4ccccc4)cc3)[nH]c2cc1F` [Compound 17, 2-([1,1′-biphenyl]-4-y)-5,6-difluoro-1H-benzo[d]imidazole], the IC50 is 1 to 10 µM.

In the case of `N[C@@H](c1ccccc1)c1nc2cc(F)c(F)cc2[nH]1` [Compound 1, (S)-(5,6-difluoro-1λ^2-benzo[d]imidazol-2-yl)(phenyl)methanamine], the IC50 was at least 10 µM.

With `Cc1cc2nc(-c3ccnn3C)[nH]c2cc1C` [Compound 31, 5,6-dimethyl-2-(1-methyl-1H-pyrazol-5-yl)-1H-benzo[d]imidazole], the IC50 is at least 10 µM.

`Cc1cc2nc(-c3ccc(=O)[nH]c3)[nH]c2cc1C` [Compound 23, 5-(5,6-dimethyl-1H-benzo[d]imidazol-2-yl)pyridin-2(1H)-one] displayed a half-maximal inhibitory concentration (IC50) of at least 10 µM.

In the case of `Fc1cc2nc(-c3ccc(C(F)(F)F)cc3)[nH]c2cc1Cl` [Compound 43, 6-chloro-5-fluoro-2-(4-(trifluoromethyl)phenyl)-1H-benzo[d]imidazole], the IC50 is at most 1 µM.

`CC(C)(C)c1ccc2[nH]c(-c3ccc(C(F)(F)F)cc3)nc2c1` [Compound 40, 5-(tert-butyl)-2-(4-(trifluoromethyl)phenyl)-1H-benzo[d]imidazole] gave an IC50 of 1 to 10 µM.

In turn, `c1ccc(-c2nc3ccccc3[nH]2)c(-c2nc3ccccc3[nH]2)c1` [Compound 15, 1,2-bis(1H-benzo[d]imidazol-2-yl)benzene] displayed an IC50 of at least 10 µM.

`CCc1ccc(-c2nc3cc(C)c(C)cc3[nH]2)cc1` [Compound 5, 2-(4-ethylphenyl)-5,6-dimethyl-1H-benzo[d]imidazole] had a half-maximal inhibitory concentration (IC50) of at most 1 µM.

On to `COc1cc2nc(-c3ccc(C(F)(F)F)cc3)[nH]c2cc1OC` [Compound 42, 5,6-dimethoxy-2-(4-(trifluoromethyl)phenyl)-1H-benzo[d]imidazole], for which the IC50 lay within 1 to 10 µM.

`Cc1cc2nc(-c3ccc(C(C)(C)C)cc3)[nH]c2cc1C` [Compound 26, 2-(4-(tert-butyl)phenyl)-5,6-dimethyl-1H-benzo[d]imidazole] showed an IC50 of at most 1 µM.

For the compound `Cc1cc2nc(-c3ccc(F)cn3)[nH]c2cc1C` [Compound 22, 2-(5-fluoropyridin-2-yl)-5,6-dimethyl-1H-benzo[d]imidazole], the IC50 lay within 1 to 10 µM.

For `Cc1cc2nc(-c3ccc(C(F)(F)F)cc3)[nH]c2cc1C` [Compound 19, 5,6-dimethyl-2-(4-(trifluoromethyl)phenyl)-1H-benzo[d]imidazole], the IC50 is at most 1 µM.
